A short description of series [1]: in vitro. The note with it: African green monkey.
Series [2] concerns SARS-CoV-2 (USA_WA1/2020). In words: microbe, parasite or virus in culture. It counts as cell-based. The note with it: for pEC50: read-out: CPE EC50.
Where [3] appears, read: Severe acute respiratory syndrome coronavirus 2, Vero C1008, SARS-CoV-2 CPE assay, Vero E6 cells, confirmed anti-SARS-CoV-2 compounds.
Setting [4] is: Severe acute respiratory syndrome coronavirus 2, Vero C1008, SARS-CoV-2 CPE assay, Vero E6 cells, efficacy, read-out: CPE % Efficacy.
[5] abbreviates: Severe acute respiratory syndrome coronavirus 2, Vero C1008, SARS-CoV-2 CPE assay, Vero E6 cells, read-out: CPE % Efficacy.
[6] abbreviates: Severe acute respiratory syndrome coronavirus 2, Vero C1008, SARS-CoV-2 CPE assay, Vero E6 cells.
[7] abbreviates: Severe acute respiratory syndrome coronavirus 2, Vero C1008, 72 h.
The mark [8] stands for this setting: Severe acute respiratory syndrome coronavirus 2, Vero C1008, […], DMSO 0%, no-virus control 100%, hit confirmation, read-out: CPE % efficacy.

The record followed here is PMC7942396, “Drug Repurposing Screen for Compounds Inhibiting the Cytopathic Effect of SARS-CoV-2” (Frontiers in Pharmacology, 2021).

pEC50: −log10 of the molar value. Counter-ions that a name gives are not always drawn. Like-named read-outs stand apart in the source and are kept apart here.

Consider `O=c1c2ccccc2[se]n1-c1ccccc1` [Ebselen], for which the cytotoxicity at 72 h in series [1] stood at 0%. Further, the pEC50 (commonly the EC50 on a negative log10 scale, so that one unit is a factor of ten) in series [2] (setting [3]) was 4.95. Moreover, the Emax in series [2] (setting [4]) turned out to be 38.1%.
The compound `CCC(=O)c1ccc2c(c1)N(CCCN(C)C)c1ccccc1S2` [Propionylpromazine hydrochloride] yielded a cytotoxicity at 72 h in series [1] of 19.8%. For the same compound, in series [2] (setting [3]), the pEC50 was 4.95. Besides, in series [2] (setting [4]), the Emax came to 72.3%.
In series [1], `CC(C)[C@@]1(NC(=O)[C@@H]2C[C@@H]3c4cccc5[nH]cc(c45)C[C@H]3N(C)C2)O[C@@]2(O)[C@@H]3CCCN3C(=O)[C@H](Cc3ccccc3)N2C1=O` [Dihydroergocristine] displayed a CC50 of 15.8 µM and a cytotoxicity of 11.5%. For the same compound, the Emax in series [2] (setting [5]) was found to be 32%. Besides, the pEC50 in series [2] (setting [6]) was 4.85.
`Cc1cc(O)c2c(c1)O[C@@]1(C)CC[C@H]3C(C)(C)CCC[C@]34CO[C@@H]2[C@H]41` [Siccanin] registered a cytotoxicity at 72 h in series [1] of 0%. Besides, the Emax in series [2] (setting [5]) stood at 104%. Also, the pEC50 in series [2] (setting [6]) was 4.90.
In series [1], `Oc1c(I)cc(Cl)c2cccnc12` [Clioquinol] had a CC50 at 72 h of 3.16 µM and a cytotoxicity at 72 h of 62.2%. Moreover, in series [2] (setting [3]), the negative logarithm of the EC50 (pEC50) was 5.20. Further, in series [2] (setting [4]), the Emax was determined as 55.1%.
On to `CC(C(O)c1ccccc1)N(C)CCOC(c1ccccc1)c1ccccc1` (stereo not drawn) [Difeterol, reference compound], for which the cytotoxicity at 72 h in series [1] was less than 30%. In series [2] (setting [7]), the pEC50 is 5.00. Besides, in series [2] (setting [8]), the Emax came out at 113%.
In the same order, the values of `CCCN(CCC)C(=O)C(CCC(=O)OCCCN1CCN(CCOC(=O)Cc2c(C)n(C(=O)c3ccc(Cl)cc3)c3ccc(OC)cc23)CC1)NC(=O)c1ccccc1` (stereo not drawn) [Proglumetacin, reference compound] are less than 30%, 5.00 and 87.6%.
Take `COC(=O)[C@H]1[C@H]2C[C@@H]3c4[nH]c5cc(OC)ccc5c4CCN3C[C@H]2C[C@@H](OC(=O)/C=C/c2ccc(O)c(OC)c2)[C@@H]1OC` [Rescimetol, reference compound]: in series [1], the cytotoxicity at 72 h is less than 30%. Moreover, the pEC50 in series [2] (setting [7]) is 5.05. In addition, in series [2] (setting [8]), the Emax is 81.8%.
On to `CN(C)CC/C=C1\c2ccccc2CSc2ccccc21` [Dosulepin hydrochloride], for which, in series [1], the CC50 worked out at 12.6 µM and the cytotoxicity came to 17.2%. For the same compound, the Emax in series [2] (setting [5]) is 30.8%. For the same compound, the pEC50 in series [2] (setting [6]) was 4.85.
For `COC(=O)[C@H]1[C@H]2C[C@@H]3c4[nH]c5cc(OC)ccc5c4CCN3C[C@H]2C[C@@H](OC(=O)c2cc(OC)c(OC)c(OC)c2)[C@@H]1OC` [Reserpine], in series [1], the CC50 came out at 19.9 µM and the cytotoxicity came out at 13.4%. Moreover, the negative-log EC50 (pEC50) in series [2] (setting [3]) was 4.95. Moreover, the Emax in series [2] (setting [4]) stood at 91.8%.
In series [1], `COC(=O)C1=C(C)NC(C)=C(C(=O)OCCN(C)Cc2ccccc2)C1c1cccc([N+](=O)[O-])c1` (stereo not drawn) [Nicardipine] returned a CC50 of 12.6 µM and a cytotoxicity of 32.8%. In series [2] (setting [5]), the Emax was 56.3%. In series [2] (setting [6]), the pEC50 was 4.90.
For `CC(=O)Oc1ccccc1C(=O)Nc1ncc([N+](=O)[O-])s1` [Nitazoxanide], in series [1], the CC50 at 72 h was 12.6 µM and the cytotoxicity at 72 h is 54.7%. In series [2] (setting [3]), the pEC50 was 5.20. Also, in series [2] (setting [4]), the Emax was 73.7%.
In the case of `CC1(C)CC(=O)c2c(C(F)(F)F)nn(-c3ccc(C(N)=O)c(N[C@H]4CC[C@H](OC(=O)CN)CC4)c3)c2C1` [SNX-5422], in series [1], the CC50 stood at 0.56 µM and the cytotoxicity is 27.4%. Further, in series [2] (setting [3]), the pEC50 is 5.80. The Emax in series [2] (setting [4]) came to 33.8%.
In series [1], `CNCCCN1c2ccccc2CCc2ccccc21` [Desipramine hydrochloride] yielded a CC50 of 5.01 µM and a cytotoxicity of 9.2%. The pEC50 in series [2] (setting [3]) was 4.95. Moreover, the Emax in series [2] (setting [4]) came out at 43.7%.
In the same order, the values of `Oc1c(Cl)cc(Cl)c2cccnc12` [Chloroxine] are 7.08 µM, 61.5%, 4.95 and 64.9%.
